Measured values taken from patent publication EP2881391A1, “Spiroindoline carbocycle derivatives and pharmaceutical compositions thereof” (Bayer Pharma Aktiengesellschaft, priority 2013, dated 2015).

target: T1, human GnRH receptor (Homo sapiens, UniProt P30968); experiment: IP-One HTRF assay (inhibition of GnRH-R activation by buserelin); assay type: cell-based; settings: IP-One HTRF assay with buserelin (at EC80) stimulation; CHO cells stably expressing human GnRH receptor; tested 20 µM to 1 nM; read-out: Potency IC50
T1 construct: line established by Prof; Thomas Gudermann; host or cells: CHO cells
T1 sequence (P30968 1-328): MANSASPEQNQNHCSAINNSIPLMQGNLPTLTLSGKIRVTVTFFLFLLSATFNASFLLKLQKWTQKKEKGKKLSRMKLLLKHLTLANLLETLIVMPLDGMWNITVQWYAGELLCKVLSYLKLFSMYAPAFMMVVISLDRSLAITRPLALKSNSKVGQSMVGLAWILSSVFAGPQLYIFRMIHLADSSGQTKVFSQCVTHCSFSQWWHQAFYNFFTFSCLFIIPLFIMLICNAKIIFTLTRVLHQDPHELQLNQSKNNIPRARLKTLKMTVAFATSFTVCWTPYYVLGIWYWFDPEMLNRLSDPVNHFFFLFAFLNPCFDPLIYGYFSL
Excerpt: By using homogenous time-resolved fluorescence resonance energy transfer (HTRF), the generation of one component of the GnRH-R signalling cascade can be measured. After stimulation of CHO cells stably expressing human GnRH receptor (established by Prof. Thomas Gudermann, currently University of Marburg, Germany; supplied as frozen cell aliquots by Cell Culture Services, Hamburg, Germany) with the EC80 of the GnRH agonist buserelin, Gq protein-coupled receptor signalling cascade is activated resulting in PLC-dependent cleavage of PIP2 to Inositol-1,4,5-triphosphate (IP3) and Diacylglycerol. The second messenger IP3 is degraded intracellularly to myo-inositol. Inhibition of the final degradation step from Inositol-1-phosphate (IP1) to myo-inositol by addition of lithium chloride leads to accumulation of IP1 in the cells. In cell lysates, IP1 can be detected via an antibody-based HTRF detection technology, where IP1 can displace the FRET acceptor IP1-d2 from binding by Terbium-labelled anti-IP1 antibody as donor resulting in a signal decrease. Compounds were tested for their capability of inhibiting GnRH-R activation by buserelin. For all IP-One HTRF® assays reagents of Cisbio Bioassays (IP-One Tb Jumbo kit, #62IPAPEJ; Cisbio Bioassays, Bagnols sur Cèze Cedex, France) were used.
For the assay, frozen cell aliquots were thawed and a cell suspension (3.33x10^6 cells/ml) containing IP1-d2 (dilution 1:40) was prepared and incubated at 37°C. After 1 h 3 µl of the cell suspension were added to 50 nl of a 100-fold concentrated solution of the test compound in DMSO pre-dispensed in a well of a white low-volume 384-well microtiter plate (Greiner Bio-One, Frickenhausen, Germany). The mixture was incubated for 20 min at 22°C to allow for pre-binding of the test compound to the GnRH-R. The receptor signaling cascade was stimulated by addition of 2 µl buserelin or LHRH (at EC50 or EC80) in stimulation buffer (10 mM Hepes pH 7.4, 1 mM CaCl2, 0.5 mM MgCl2, 4.2 mM KCI, 146 mM NaCl, 5.5 mM α-D-Glucose, 0.05% BSA, 125 mM LiCl (final assay concentration 50 mM) in aqua dest.). Plates were incubated for 1 h at 37°C and 5% carbon dioxide before the cells were lysed by adding 3 µl Terbium-labelled anti-IP1 antibody (1:40) diluted in Conjugate & Lysis buffer as supplied with the kit. After an incubation for 1 h at 22°C to enable complete cell lysis and antibody binding to free IP1 or IP1-d2, plates were measured in an HTRF reader, e.g. a RUBYstar, PHERAstar (both BMG Labtechnologies, Offenburg, Germany) or a Viewlux (PerkinElmer LAS, Rodgau-Jügesheim, Germany). From the fluorescence emissions at 665 nm (FRET) and at 620 nm (background signal of Terbium-antibody), the ratio (emission at 665 nm divided by emission at 620 nm) was calculated and the data were normalized (reaction without test compound = 0% inhibition; all other assay components except agonist = 100% inhibition). On the same microtiter plate, compounds were tested at 10 different concentrations in the range of 20 µM to 1 nM (20 µM, 6.7 µM, 2.2 µM, 0.74 µM, 0.25 µM, 82 nM, 27 nM, 9.2 nM, 3.1 nM and 1 nM; dilution series prepared before the assay at the level of the 100-fold conc. stock solutions by serial 1:3 dilutions in 100% DMSO) in duplicate values for each concentration. By using an in-house software, the IC50 values were calculated by a 4 parameter fit. The data reveal that the compounds of the present invention have antagonist activities on the human GnRH receptor. Within the meaning of the present invention the antagonist activity is reflected by the ability of a compound of the invention to antagonize human GnRH receptor stimulation in IP-One HTRF® assay at least three times the standard deviation over the background level.

First: COc1cccc(S(=O)(=O)N2c3ccc(C(=O)NCc4ncccc4Cl)cc3C3(CCC(O)(C(F)(F)F)CC3)C2C2CC2)c1 (stereo not drawn) [Example 45, N-[(3-chloropyridin-2-yl)methyl]-2'-cyclopropyl-4-hydroxy-1'-[(3-methoxyphenyl)su Ifonyl]-4-(trifluoromethyl)-1',2'-dihydrospiro[cyclohexane-1,3'-indole]-5'-carboxamide]
Second: O=C(NCc1ncccc1Cl)c1ccc2c(c1)C1(CCC(O)(C(F)(F)F)CC1)C(C1CC1)N2S(=O)(=O)c1ccc(F)cc1 (single isomer, unassigned) [Example 1-2]
The IC50 of the first is 5.6-fold higher: 0.756 µM for the first, 0.135 µM for the second.

Compared with `CC(C)=CCC1N(S(=O)(=O)c2ccc(F)cc2)c2ccc(C(=O)Nc3cccc(C)c3)cc2C12CCC(O)(C(F)(F)F)CC2` (stereo not drawn) [Example 13, 1'-[(4-fluorophenyl)sulfonyl]-4-hydroxy-2'-(3-methylbut-2-en-1-yl)-N-(3-methylphenyl)-4-(trifluoromethyl)-1',2'-dihydrospiro[cyclohexane-1,3'-indole]-5'-carboxamide], `COC(=O)c1cccc(NC(=O)c2ccc3c(c2)C2(CCC(O)(C(F)(F)F)CC2)C(CC=C(C)C)N3S(=O)(=O)c2ccc(F)cc2)c1` (stereo not drawn) [Example 32, methyl 3-[({1'-[(4-fluorophenyl)sulfonyl]-4-hydroxy-2'-(3-methylbut-2-en-1-yl)-4-(trifluoromethyl)-1',2'-dihydrospiro[cyclohexane-1,3'-indol]-5'-yl}carbonyl)amino] benzoate] is 6.6-fold lower in IC50: 3.25 µM for the first, 0.494 µM for the second.

First: O=C(Nc1ccon1)c1ccc2c(c1)C1(CCC(O)(C(F)(F)F)CC1)C(C1CC1)N2S(=O)(=O)c1ccc(F)cc1 (single isomer, unassigned) [Example 56-2]
Second: O=C(Nc1cccc(Cl)c1)c1ccc2c(c1)C1(CCC(O)(C(F)(F)F)CC1)C(C1CC1)N2S(=O)(=O)c1ccc(F)cc1 (stereo not drawn) [Example 55, N-(3-chlorophenyl)-2'-cyclopropyl-1'-[(4-fluorophenyl)sulfonyl]-4-hydroxy-4-(trifluoromethyl)-1',2'-dihydrospiro[cyclohexane-1,3'-indole]-5'-carboxamide]
The IC50 of the first is 25-fold higher: 17.4 µM for the first, 0.705 µM for the second.

Going from `COC(=O)c1cccc(S(=O)(=O)N2c3ccc(C(=O)Nc4ccon4)cc3C3(CCC(O)(C(F)(F)F)CC3)C2C2CC2)c1` (stereo not drawn) [Example 27, methyl 3-{[2'-cyclopropyl-4-hydroxy-5'-(1,2-oxazol-3-ylcarbamoyl)-4-(trifluoromethyl)spiro[cyclohexane-1,3'-indol]-1'(2'H)-yl]sulfonyl}benzoate] to `COC(=O)c1cccc(NC(=O)c2ccc3c(c2)C2(CCC(O)(C(F)(F)F)CC2)C(C2CC2)N3S(=O)(=O)c2ccc(F)cc2)c1` (racemic) [Example 30, methyl 3-[({2'-cyclopropyl-1'-[(4-fluorophenyl)sulfonyl]-4-hydroxy-4-(trifluoromethyl)-1',2'-dihydrospiro[cyclohexane-1,3'-indol]-5'-yl}carbonyl)amino] benzoate], the IC50 falls from 1.12 µM to 0.227 µM (4.9-fold). The second is the more potent here.

`O=C(NC1CCc2ccccc21)c1ccc2c(c1)C1(CCC(O)(C(F)(F)F)CC1)C(C1CC1)N2S(=O)(=O)c1ccc(F)cc1` (stereo not drawn) [Example 53, 2'-cyclopropyl-N-(2,3-dihydro-1H-inden-1-yl)-1'-[(4-fluorophenyl)sulfonyl]-4-hydroxy-4-(trifluoromethyl)-1',2'-dihydrospiro[cyclohexane-1,3'-indole]-5'-carboxamide] and `O=C(NCc1ccc(F)cc1Cl)c1ccc2c(c1)C1(CCC(O)(C(F)(F)F)CC1)C(C1CC1)N2S(=O)(=O)c1ccc(F)cc1` (stereo not drawn) [Example 60, N-(2-chloro-4-fluorobenzyl)-2'-cyclopropyl-1'-[(4-fluorophenyl)sulfonyl]-4-hydroxy-4-(trifluoromethyl)-1',2'-dihydrospiro[cyclohexane-1,3'-indole]-5'-carboxamide] are within 1.5-fold of each other in IC50: 0.611 µM for the first, 0.432 µM for the second.

Compared with `O=C(NCc1ncccc1C(F)(F)F)c1ccc2c(c1)C1(CCC(O)(C(F)(F)F)CC1)C(C1CC1)N2S(=O)(=O)c1cccc(C(=O)N2CCC2)c1` (single isomer, unassigned) [Example 66-2], `O=C(O)c1cccc(S(=O)(=O)N2c3ccc(C(=O)NCc4ncccc4C(F)(F)F)cc3C3(CCC(O)(C(F)(F)F)CC3)C2C2CC2)c1` (stereo not drawn) [Example 50, 3-{[2'-cyclopropyl-4-hydroxy-4-(trifluoromethyl)-5'-({[3-(trifluoromethyl)pyridin-2-yl]methyl}carbamoyl)spiro[cyclohexane-1,3'-indol]-1'(2'H)-yl]sulfonyl}benzoic acid] is 5-fold higher in IC50: 0.612 µM for the first, 3.07 µM for the second.

Going from `O=C(O)c1cccc(S(=O)(=O)N2c3ccc(C(=O)NCc4ccccc4Cl)cc3C3(CCCCC3)C2C2CC2)c1` (stereo not drawn) [Example 10, 3-({5'-[(2-chlorobenzyl)carbamoyl]-2'-cyclopropylspiro[cyclohexane-1,3'-indol]-1'(2'H)-yl}sulfonyl)benzoic acid] to `COC(=O)c1cccc(S(=O)(=O)N2c3ccc(C(=O)NCc4ccccc4Cl)cc3C3(CCCCC3)C2C2CC2)c1` (stereo not drawn) [Example 9, methyl 3-({5'-[(2-chlorobenzyl)carbamoyl]-2'-cyclopropylspiro[cyclohexane-1,3'-indol]-1'(2'H)-yl}sulfonyl)benzoate], the IC50 rises from 0.805 µM to 2.29 µM (2.8-fold).

First: O=C(NCc1ccccc1Cl)c1ccc2c(c1)C1(CCC(O)CC1)C(C1CC1)N2S(=O)(=O)c1ccc(F)cc1 (stereo not drawn) [Example 2, N-(2-chlorobenzyl)-2'-cyclopropyl-1'-[(4-fluorophenyl)sulfonyl]-4-hydroxy-1',2'-dihydrospiro[cyclohexane-1,3'-indole]-5'-carboxamide]
Second: CC(C)=CCC1N(S(=O)(=O)c2ccc(F)cc2)c2ccc(C(=O)NCc3ccccc3Cl)cc2C12CCC(O)(C(F)(F)F)CC2 (stereo not drawn) [Example 22, N-(2-chlorobenzyl)-1'-[(4-fluorophenyl)sulfonyl]-4-hydroxy-2'-(3-methylbut-2-en-1-yl)-4-(trifluoromethyl)-1',2'-dihydrospiro[cyclohexane-1,3'-indole]-5'-carboxamide]
The IC50 of the first is 12-fold lower: 0.0607 µM for the first, 0.745 µM for the second. The first is the more potent here.

Compared with `CC(C)=CCC1N(S(=O)(=O)c2ccc(F)cc2)c2ccc(C(=O)NCc3ncccc3C(F)(F)F)cc2C12CCC(O)(C(F)(F)F)CC2` (stereo not drawn) [Example 23, 1'-[(4-fluorophenyl)sulfonyl]-4-hydroxy-2'-(3-methylbut-2-en-1-yl)-4-(trifluoromethyl)-N-{[3-(trifluoromethyl)pyridin-2-yl]methyl}-1',2'-dihydrospiro[cyclohexane-1,3'-indole]-5'-carboxamide], `COc1cccc(S(=O)(=O)N2c3ccc(C(=O)Nc4cccc(S(N)(=O)=O)c4)cc3C3(CCC(O)(C(F)(F)F)CC3)C2C2CC2)c1` (stereo not drawn) [Example 37, 2'-cyclopropyl-4-hydroxy-1'-[(3-methoxyphenyl)su Ifonyl]-N-(3-sulfamoylphenyl)-4-(trifluoromethyl)-1',2'-dihydrospiro[cyclohexane-1,3'-indole]-5'-carboxamide] is 3.7-fold higher in IC50: 0.713 µM for the first, 2.64 µM for the second.
